Measurements from the supplement of paper PMC11451515.

Test system: NOMO1
Test: cell viability relative to DMSO control; higher = less cytotoxic
Conditions: 48 h
In short: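 Viability values are per-plate percentages of DMSO wells, with background from cell-free wells. Library compounds in DMSO were pin-dosed, in an 11-point threefold series from 47 μM to 0.79 nM, onto NOMO1 or SEM (500 cells/well) or P12-Ichikawa (1000 cells/well) leukemia cells in 1536-well plates (5 μl). Those cells had been adapted for at least four passages in each medium, and CellTiter-Glo One luminescence was read after 48 h at 37°C.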

[1] = HPLM + 10% dialyzed FBS, 0.000781 µM
[2] = HPLM + 10% dialyzed FBS, 0.00234 µM
[3] = HPLM + 10% dialyzed FBS, 0.00702 µM
[4] = HPLM + 10% dialyzed FBS, 0.0211 µM
[5] = HPLM + 10% dialyzed FBS, 0.0632 µM
[6] = HPLM + 10% dialyzed FBS, 0.19 µM
[7] = HPLM + 10% dialyzed FBS, 0.569 µM
[8] = HPLM + 10% dialyzed FBS, 1.71 µM
[9] = HPLM + 10% dialyzed FBS, 5.12 µM
[10] = HPLM + 10% dialyzed FBS, 15.4 µM
[11] = HPLM + 10% dialyzed FBS, 46.1 µM
[12] = RPMI 5 mM glucose + 10% FBS, 0.000781 µM
[13] = RPMI 5 mM glucose + 10% FBS, 0.00234 µM
[14] = RPMI 5 mM glucose + 10% FBS, 0.00702 µM
[15] = RPMI 5 mM glucose + 10% FBS, 0.0211 µM
[16] = RPMI 5 mM glucose + 10% FBS, 0.0632 µM
[17] = RPMI 5 mM glucose + 10% FBS, 0.19 µM
[18] = RPMI 5 mM glucose + 10% FBS, 0.569 µM
[19] = RPMI 5 mM glucose + 10% FBS, 1.71 µM
[20] = RPMI 5 mM glucose + 10% FBS, 5.12 µM
[21] = RPMI 5 mM glucose + 10% FBS, 15.4 µM
[22] = RPMI 5 mM glucose + 10% FBS, 46.1 µM
[23] = RPMI 5 mM glucose + 10% dialyzed FBS, 0.000781 µM
[24] = RPMI 5 mM glucose + 10% dialyzed FBS, 0.00234 µM
[25] = RPMI 5 mM glucose + 10% dialyzed FBS, 0.00702 µM
[26] = RPMI 5 mM glucose + 10% dialyzed FBS, 0.0211 µM
[27] = RPMI 5 mM glucose + 10% dialyzed FBS, 0.0632 µM
[28] = RPMI 5 mM glucose + 10% dialyzed FBS, 0.19 µM
[29] = RPMI 5 mM glucose + 10% dialyzed FBS, 0.569 µM
[30] = RPMI 5 mM glucose + 10% dialyzed FBS, 1.71 µM
[31] = RPMI 5 mM glucose + 10% dialyzed FBS, 5.12 µM
[32] = RPMI 5 mM glucose + 10% dialyzed FBS, 15.4 µM
[33] = RPMI 5 mM glucose + 10% dialyzed FBS, 46.1 µM

SMILES: c1cc(-c2cnn3cc(-c4ccc(OCCN5CCCCC5)cc4)cnc23)ccn1
- cell viability [1]: 95.4%
- cell viability [2]: 83.7%
- cell viability [3]: 101%
- cell viability [4]: 87.5%
- cell viability [5]: 83.1%
- cell viability [6]: 88.8%
- cell viability [7]: 88.6%
- cell viability [8]: 67.2%
- cell viability [9]: 76.1%
- cell viability [10]: 72.8%
- cell viability [11]: 30.5%
- cell viability [12]: 83.1%
- cell viability [13]: 88.8%
- cell viability [14]: 87.4%
- cell viability [15]: 81.2%
- cell viability [16]: 83.9%
- cell viability [17]: 83.4%
- cell viability [18]: 80.6%
- cell viability [19]: 80.9%
- cell viability [20]: 80.4%
- cell viability [21]: 85.9%
- cell viability [22]: 80.2%
- cell viability [23]: 80.1%
- cell viability [24]: 84.5%
- cell viability [25]: 82.6%
- cell viability [26]: 86.9%
- cell viability [27]: 89.5%
- cell viability [28]: 86.5%
- cell viability [29]: 79.6%
- cell viability [30]: 84%
- cell viability [31]: 78.3%
- cell viability [32]: 80.9%
- cell viability [33]: 74%

SMILES: OC1=CC=C(C=C1)C/2=C/C3=C(OC2)C=C(O)C=C3
- cell viability [1]: 118%
- cell viability [2]: 123%
- cell viability [3]: 114%
- cell viability [4]: 111%
- cell viability [5]: 118%
- cell viability [6]: 111%
- cell viability [7]: 100%
- cell viability [8]: 82.8%
- cell viability [9]: 60.9%
- cell viability [10]: 26.3%
- cell viability [11]: 5.22%
- cell viability [12]: 97.2%
- cell viability [13]: 108%
- cell viability [14]: 117%
- cell viability [15]: 99.8%
- cell viability [16]: 108%
- cell viability [17]: 108%
- cell viability [18]: 104%
- cell viability [19]: 93.3%
- cell viability [20]: 89.4%
- cell viability [21]: 23.9%
- cell viability [22]: 9.27%
- cell viability [23]: 108%
- cell viability [24]: 118%
- cell viability [25]: 110%
- cell viability [26]: 109%
- cell viability [27]: 101%
- cell viability [28]: 105%
- cell viability [29]: 111%
- cell viability [30]: 106%
- cell viability [31]: 96.8%
- cell viability [32]: 33.1%
- cell viability [33]: 14.9%

SMILES: C=CC(=O)Nc1cccc(Sc2nc(Nc3ccc(N4CCN(C)CC4)cc3)ncc2Cl)c1
- cell viability [1]: 102%
- cell viability [2]: 103%
- cell viability [3]: 101%
- cell viability [4]: 104%
- cell viability [5]: 110%
- cell viability [6]: 109%
- cell viability [7]: 127%
- cell viability [8]: 114%
- cell viability [9]: 117%
- cell viability [10]: 98.5%
- cell viability [11]: 24.9%
- cell viability [12]: 97.3%
- cell viability [13]: 104%
- cell viability [14]: 121%
- cell viability [15]: 104%
- cell viability [16]: 101%
- cell viability [17]: 120%
- cell viability [18]: 109%
- cell viability [19]: 116%
- cell viability [20]: 113%
- cell viability [21]: 119%
- cell viability [22]: 8.7%
- cell viability [23]: 95.4%
- cell viability [24]: 101%
- cell viability [25]: 97.1%
- cell viability [26]: 92.1%
- cell viability [27]: 112%
- cell viability [28]: 93%
- cell viability [29]: 98.2%
- cell viability [30]: 97.5%
- cell viability [31]: 107%
- cell viability [32]: 107%
- cell viability [33]: 11.6%

SMILES: CN(C)c1nc(Cc2ccc(NC(=O)c3ccc(C(F)(F)F)cc3)cc2)nc(N(C)C)c1CC(=O)O
- cell viability [1]: 120%
- cell viability [2]: 101%
- cell viability [3]: 107%
- cell viability [4]: 94.5%
- cell viability [5]: 119%
- cell viability [6]: 112%
- cell viability [7]: 103%
- cell viability [8]: 96.2%
- cell viability [9]: 107%
- cell viability [10]: 108%
- cell viability [11]: 91.1%
- cell viability [12]: 93%
- cell viability [13]: 88.6%
- cell viability [14]: 87.1%
- cell viability [15]: 82.7%
- cell viability [16]: 99.4%
- cell viability [17]: 89.4%
- cell viability [18]: 95.7%
- cell viability [19]: 96.6%
- cell viability [20]: 86%
- cell viability [21]: 91.8%
- cell viability [22]: 85.5%
- cell viability [23]: 96.1%
- cell viability [24]: 95.2%
- cell viability [25]: 96.2%
- cell viability [26]: 94.1%
- cell viability [27]: 91.6%
- cell viability [28]: 97.8%
- cell viability [29]: 98%
- cell viability [30]: 99.8%
- cell viability [31]: 96.9%
- cell viability [32]: 86.9%
- cell viability [33]: 86.8%

SMILES: O=C(/C=C/c1ccc(/C=C/C(=O)Nc2ccc(C3=NCCN3)cc2)cc1)Nc1ccc(C2=NCCN2)cc1
- cell viability [1]: 103%
- cell viability [2]: 108%
- cell viability [3]: 111%
- cell viability [4]: 108%
- cell viability [5]: 111%
- cell viability [6]: 116%
- cell viability [7]: 117%
- cell viability [8]: 123%
- cell viability [9]: 121%
- cell viability [10]: 111%
- cell viability [11]: 122%
- cell viability [12]: 104%
- cell viability [13]: 98.8%
- cell viability [14]: 115%
- cell viability [15]: 117%
- cell viability [16]: 123%
- cell viability [17]: 106%
- cell viability [18]: 106%
- cell viability [19]: 115%
- cell viability [20]: 117%
- cell viability [21]: 125%
- cell viability [22]: 131%
- cell viability [23]: 88.2%
- cell viability [24]: 107%
- cell viability [25]: 95.5%
- cell viability [26]: 106%
- cell viability [27]: 117%
- cell viability [28]: 117%
- cell viability [29]: 113%
- cell viability [30]: 112%
- cell viability [31]: 108%
- cell viability [32]: 112%
- cell viability [33]: 102%

SMILES: OC[C@H]1O[C@H](C[C@@H]1O)N2/C=C(C(=O)NC2=O)/C(F)(F)F
- cell viability [1]: 128%
- cell viability [2]: 120%
- cell viability [3]: 106%
- cell viability [4]: 116%
- cell viability [5]: 120%
- cell viability [6]: 114%
- cell viability [7]: 82.8%
- cell viability [8]: 58.8%
- cell viability [9]: 69.7%
- cell viability [10]: 45%
- cell viability [11]: 26.5%
- cell viability [12]: 99.8%
- cell viability [13]: 117%
- cell viability [14]: 116%
- cell viability [15]: 116%
- cell viability [16]: 114%
- cell viability [17]: 107%
- cell viability [18]: 118%
- cell viability [19]: 115%
- cell viability [20]: 107%
- cell viability [21]: 86.9%
- cell viability [22]: 42.9%
- cell viability [23]: 115%
- cell viability [24]: 110%
- cell viability [25]: 121%
- cell viability [26]: 113%
- cell viability [27]: 103%
- cell viability [28]: 113%
- cell viability [29]: 97.4%
- cell viability [30]: 96%
- cell viability [31]: 67.7%
- cell viability [32]: 31.3%
- cell viability [33]: 18.3%
